Source: PubChem BioAssay AID248 (DTP/NCI, 2004)
Toxic doses and inconclusive results are not listed. Cut-off read from the data, not from the text of the source: active = T/C of 150% or more; inactive = T/C below 125%.

Tested on: L1210 leukemia ip in BDF1 mice, survival T/C
Assay: NCI In Vivo Anticancer Drug Screen. Data for tumor model L1210 Leukemia (intraperitoneal) in B6D2F1 (BDF1) mice
Settings: endpoint: mean survival time, higher = longer survival
In short: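 Value reflects the ratio of survival in compound-treated mice to survival in vehicle-treated controls, with both groups carrying the same transplanted tumor.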

Measured: T/C

Nc1nc2c(=O)[nH]cnc2n1C1OC(CO)C(O)C1O (configuration not stated)
inactive: dose: 5.0 mg/kg/injection, schedule: Q01DX001 (ip), vehicle: saline 102 % of control | dose: 10.0 mg/kg/injection, schedule: Q01DX001 (ip), vehicle: saline 104 % of control | dose: 20.0 mg/kg/injection, schedule: Q01DX001 (ip), vehicle: saline 102 % of control

N#Cc1cc(C(Cl)(Cl)Cl)ccc1C(Cl)(Cl)Cl
inactive: dose: 100.0 mg/kg/injection, schedule: Q04DX003 (ip), vehicle: Klucel (hydroxypropylcellulose) (HPC) 97 % of control | dose: 200.0 mg/kg/injection, schedule: Q04DX003 (ip), vehicle: Klucel (hydroxypropylcellulose) (HPC) 95 % of control | dose: 400.0 mg/kg/injection, schedule: Q04DX003 (ip), vehicle: Klucel (hydroxypropylcellulose) (HPC) 90 % of control

N#CCCn1cnc2c(N)ncnc21
inactive: dose: 100.0 mg/kg/injection, schedule: Q01DX009 (ip), vehicle: saline with Tween-80 96 % of control | dose: 100.0 mg/kg/injection, schedule: Q04DX003 (ip), vehicle: saline with Tween-80 103 % of control | dose: 200.0 mg/kg/injection, schedule: Q01DX009 (ip), vehicle: saline with Tween-80 96 % of control | dose: 200.0 mg/kg/injection, schedule: Q04DX003 (ip), vehicle: saline with Tween-80 103 % of control | dose: 400.0 mg/kg/injection, schedule: Q01DX009 (ip), vehicle: saline with Tween-80 91 % of control | dose: 400.0 mg/kg/injection, schedule: Q04DX003 (ip), vehicle: saline with Tween-80 104 % of control
